Data on 7 molecules can be found in patent publication US4840969A, “N-substituted benzamides” (Bayer Aktiengesellschaft, priority 1986, dated 1989).

In one series the test system is Globodera rostochiensis. Nature of the series: Critical concentration test, Globodera rostochiensis (potatoes in infested soil). Format: in vivo. The conditions noted are these: active compound concentrations of 2.5, 5 and 10 ppm in soil; potato root cysts after six weeks; 18° C. The protocol:
Critical concentration test
Test nematode: Globodera rostochiensis
(§1) Solvent: 3 parts by weight of acetone
(§2) Emulsifier: 1 part by weight of alkylaryl polyglycol ether
The treated soil is filled into pots, potatoes are planted and the pots are kept at a greenhouse temperature of 18° C.

For the next series, the system named is Meloidogyne incognita. Nature of the series: Critical concentration test/nematodes, Meloidogyne incognita (lettuce in infested soil). The conditions noted are these: active compound concentration of 1.25 ppm-10 ppm in soil; lettuce root galls after four weeks; 27° C. Format: in vivo. On the procedure: Critical concentration test/nematodes
Test nematode: Meloidogyne incognita
as §1, §2
The treated soil is filled into pots, lettuce is sown and the pots are kept at a greenhouse temperature of 27° C.

Another series in a line: LD50 on rats (oral). To be noted: rat, in vivo, stomach tube, in polyethylene glycol Lutrol, read-out: LD50 (mg of active compound/kg of body weight). On the procedure: LD50 values on rats (oral)
The values were determined in the customary manner.

For series [1] the following is noted: known from U.S. Pat. No. 2,978,479 and Pesticide Manual; cited from earlier work.

On to `CC(NC(=O)c1ccccc1Cl)C(F)(F)F` (stereo not drawn) [Example 29], for which the degree of effectiveness in the series with Globodera rostochiensis and with Meloidogyne incognita was 95% throughout.

For the molecule `O=C(NCC(F)(F)F)c1c(F)cccc1F` [Example 5], the degree of effectiveness in the series with Globodera rostochiensis came out at 95%.

For `CCOP(=O)(NC(C)C)Oc1ccc(SC)c(C)c1` (stereo not drawn) [fenamiphos, O-ethyl-O-(3-methyl-4-methylthio-phenyl)-N-isopropyl-phosphoric acid ester-amide, reference compound], the LD50 in the series “LD50 on rats (oral)” is 10 to 20 mg/kg. In the series on Meloidogyne incognita, this molecule had a degree of effectiveness of 95%. Also, the “insecticidal and nematicidal properties” value in series [1] was “very good”.

Turning to `O=C(NC1(C(F)(F)F)CC1)c1c(F)cccc1F` [Example 33], the degree of effectiveness in the series on Globodera rostochiensis and in the series with Meloidogyne incognita was 95% each time.

With `CN(CC(F)(F)F)C(=O)c1c(F)cccc1F` [Example 6], in the series with Meloidogyne incognita, the degree of effectiveness stood at 95%.

In the case of `CC(NC(=O)c1c(F)cccc1F)C(F)(F)F` (stereo not drawn) [drawing 61], the LD50 in “LD50 on rats (oral)” was above 1000 mg/kg.

Consider `CC(NC(=O)c1c(F)cccc1F)C(F)(F)F` (stereo not drawn) [Example 1, 2,6-difluorobenzoic acid N-(1,1,1-trifluoro-prop-2-yl)-amide], for which the degree of effectiveness in the series on Globodera rostochiensis and with Meloidogyne incognita was 95% in each case.
